Results from patent US11345703B2, “Substituted pyrazolo[1,5-a]pyrimidine macrocyclic compound” (SHENZHEN TARGETRX, INC., priority 2018, dated 2022).

What was measured:
[1] = Metabolic stability, human liver microsome test; assay type: in vitro ADME; conditions: liver microsomes, pH 7.4, 1 μM compound, 0.5 mg/mL protein, 37° C.; for half-life at 1 μM: read-out: human liver microsome test t1/2(min)
Experimental: (§1) Microsome tests: human liver microsomes: 0.5 mg/mL, Xenotech; rat liver microsomes: 0.5 mg/mL, Xenotech; coenzyme (NADPH/NADH): 1 mM, Sigma Life Science; magnesium chloride: 5 mM, 100 mM phosphate buffer agent (pH 7.4).
(§2) Preparation of the stock solution: A certain amount of the powder of the example compounds was accurately weighed and dissolved to 5 mM with DMSO.
(§3) Preparation of phosphate buffer (100 mM, pH 7.4): 150 mL of pre-prepared 0.5 M potassium dihydrogen phosphate solution was mixed with 700 mL of pre-prepared 0.5 M dipotassium hydrogen phosphate solution, and the pH of the mixture was adjusted with 0.5 M dipotassium hydrogen phosphate solution to 7.4. It was diluted 5 times with ultrapure water before use, and magnesium chloride was added to obtain a phosphate buffer (100 mM) containing 100 mM potassium phosphate, 3.3 mM magnesium chloride, and a pH of 7.4.
(§4) A solution of NADPH regeneration system (containing 6.5 mM NADP, 16.5 mM G-6-P, 3 U/mL G-6-P D, 3.3 mM magnesium chloride) was prepared and placed on wet ice before use.
(§5) Preparation of stop solution: acetonitrile solution containing 50 ng/mL propranolol hydrochloride and 200 ng/mL tolbutamide (internal standard). 25057.5 μL of phosphate buffer (pH 7.4) was taken into a 50 mL centrifuge tube, 812.5 μL of human liver microsomes was added respectively, and mixed uniformly to obtain a liver microsome dilution with a protein concentration of 0.625 mg/mL. 25057.5 μL of phosphate buffer (pH 7.4) was taken into a 50 mL centrifuge tube, and 812.5 μL of SD rat liver microsomes was added respectively, and mixed uniformly to obtain a liver microsome dilution with a protein concentration of 0.625 mg/mL.
(§6) Incubation of the sample: The stock solutions of the corresponding compounds were diluted to 0.25 mM as working solutions with an aqueous solution containing 70% acetonitrile before use. 398 μL of human liver microsome or rat liver microsome dilutions were added to 96-well incubation plates (N=2), and 2 μL of 0.25 mM working solutions were added and mixed uniformly, respectively.
(§7) Determination of metabolic stability: 300 μL of pre-cooled stop solution was added to each well of a 96-well deep well plate, which was placed on ice as a stop plate. The 96-well incubation plate and the NADPH regeneration system were placed in a 37° C. water bath, shaken at 100 rpm, and pre-incubated for 5 min. 80 μL of the incubation solution was removed from each well of the incubation plate, added to the stop plate, and mixed uniformly, and 20 μL of the NADPH regeneration system solution was supplemented as a sample at 0 min. Then, 80 μL of the NADPH regeneration system solution was added to each well of the incubation plate to start the reaction and the timing was started. […] 100 μL of the reaction solution was removed at 10, 30, and 90 min of the reaction, respectively, and added to the stop plate, and the reaction was terminated by vortexing for 3 min. The stop plate was centrifuged at 5000×g for 10 min at 4° C. 100 μL of the supernatant was removed into a 96-well plate to which 100 μL of distilled water was previously added, mixed uniformly, and sample analysis was performed by LC-MS/MS.
(§8) Data analysis: The peak areas of the corresponding compounds and the internal standard were detected by LC-MS/MS system, and the ratios of the peak areas of the compounds to the internal standard were calculated.
(§9) The metabolic stability in human and rat liver microsomes was evaluated by simultaneously testing and comparing the compounds of the present invention and the compound without deuteration. The non-deuterated compound LOXO-195 was used as a control.

[2] = Metabolic stability, rat liver microsome test; assay type: in vitro ADME; conditions: SD, liver microsomes, pH 7.4, 1 μM compound, 0.5 mg/mL protein, 37° C.; for half-life at 1 μM: read-out: rat liver microsome test t1/2(min)
Experimental: as §1, §2, §3, §4, §5, §6, §7, §8, §9

KM12 (TPM3-TRKA) cells = assay: Cytotoxicity test, inhibition of KM12 cell proliferation (CellTiter-Glo); assay type: cell-based; conditions: Homo sapiens, 72 h, 3 days incubation
Experimental: The inhibitory effect of the example compounds on the activity of KM12 (TPM3-TRKA) cells was examined.
Experimental methods: 1. Preparation of cell plates—KM12 cells were separately seeded in 96-well plates, and 8 ng/ml IL-3 was added to KM12 cells, and the cell plates were incubated in a carbon dioxide incubator overnight. 2. The test compound was dissolved in DMSO and subjected to a 3.16-fold gradient dilution with 9 compound concentrations in triplicate. 3. Compound Treatment of Cells—The compounds were transferred to cell plates at a starting concentration of 10 μM. The cell plates were incubated in a carbon dioxide incubator for 3 days. 4. Detection—The CellTiter-Glo reagent was added to the cell plate and incubated for 30 minutes at room temperature to stabilize the luminescence signal. Readings were performed using a PerkinElmer Envision multi-label analyzer.

microsomal CLint at 1 μM [1]	half-life at 1 μM [1]	microsomal CLint at 1 μM [2]	half-life at 1 μM [2]	Compound	IC50 (KM12 (TPM3-TRKA) cells)
78.7 µL/min/mg	17.6 min	35.5 µL/min/mg	39.1 min	[2H]C([2H])([2H])C1([2H])CCc2ncc(F)cc2C2CCCN2c2ccn3ncc(c3n2)C(=O)N1 (racemic) [Compound 70, 9-fluoro-15-(methyl-d3)-2,11,16,20,21,24-hexaazapentocyclo[16.5.2.0^2,6,0^7,12,0^21,25]pentacosane-1(24),7,9,11,18(25),19,22-heptaene-17-one-15-d]	
38.5 µL/min/mg	36 min	23.3 µL/min/mg	59.4 min	[2H]C1([2H])c2ncc(F)cc2C2CCCN2c2ccn3ncc(c3n2)C(=O)N[C@H](C)C1([2H])[2H] (stereo partly drawn) [Compound 13, (15R)-9-fluoro-15-methyl-2,11,16,20,21,24-hexaazapentocyclo[16.5.2.0^2,6,0^7,12,0^21,25]pentacosane-1(24),7,9,11,18(25),19,22-heptaene-17-one-13,13,14,14-d4]	
56.5 µL/min/mg	24.5 min	44.2 µL/min/mg	31.3 min	[2H]C1([2H])c2ncc(F)cc2[C@H]2CCCN2c2ccn3ncc(c3n2)C(=O)N[C@H](C)C1([2H])[2H] [Compound L-1-a, (6R,15R)-9-fluoro-15-methyl-2,11,16,20,21,24-hexaazapentocyclo[16.5.2.0^2,6,0^7,12,0^21,25]pentacosane-1(24),7,9,11,18(25),19,22-heptaene-17-one-13,13,14,14-d4]	
49.8 µL/min/mg	27.8 min	75.1 µL/min/mg	18.5 min	[2H]C1([2H])c2ncc(F)cc2[C@@H]2CCCN2c2ccn3ncc(c3n2)C(=O)N[C@H](C)C1([2H])[2H] [Compound L-1-b, (6S,15R)-9-fluoro-15-methyl-2,11,16,20,21,24-hexaazapentocyclo[16.5.2.0^2,6,0^7,12,0^21,25]pentacosane-1(24),7,9,11,18(25),19,22-heptaene-17-one-13,13,14,14-d4]	
79.6 µL/min/mg	17.4 min	45.6 µL/min/mg	30.4 min	[2H]C1([2H])CCN2c3ccn4ncc(c4n3)C(=O)N[C@H](C)CCc3ncc(F)cc3[C@]21[2H] [Compound L-2-a, (6R,15R)-9-fluoro-15-methyl-2,11,16,20,21,24-hexaazapentocyclo[16.5.2.0^2,6,0^7,12,0^21,25]pentacosane-1(24),7,9,11,18(25),19,22-heptaene-17-one-5,5,6-d3]	2.51 nM
55.2 µL/min/mg	25.1 min	57.9 µL/min/mg	23.9 min	[2H]C1([2H])CCN2c3ccn4ncc(c4n3)C(=O)N[C@H](C)CCc3ncc(F)cc3[C@@]21[2H] [Compound L-2-b, (6S,15R)-9-fluoro-15-methyl-2,11,16,20,21,24-hexaazapentocyclo[16.5.2.0^2,6,0^7,12,0^21,25]pentacosane-1(24),7,9,11,18(25),19,22-heptaene-17-one-5,5,6-d3]	
94.3 µL/min/mg	14.7 min	59.5 µL/min/mg	23.3 min	C[C@@H]1CCc2ncc(F)cc2C2CCCN2c2ccn3ncc(c3n2)C(=O)N1 (some centres unmarked) [Compound Φ, reference compound]	
108 µL/min/mg	12.9 min	83.2 µL/min/mg	16.7 min	C[C@@H]1CCc2ncc(F)cc2[C@H]2CCCN2c2ccn3ncc(c3n2)C(=O)N1 [Compound Φ-a, (6R,15R)-9-fluoro-15-methyl-2,11,16,20,21,24-hexaazapentocyclo[16.5.2.0^2,6,0^7,12,0^21,25]pentacosane-1(24),7,9,11,18(25),19,22-heptaene-17-one, reference compound]	2.56 nM
78.4 µL/min/mg	17.7 min	79.2 µL/min/mg	17.5 min	C[C@@H]1CCc2ncc(F)cc2[C@@H]2CCCN2c2ccn3ncc(c3n2)C(=O)N1 [Φ-b, reference compound]	
